Assay results from the supplement of paper PMC13207355.
Where a name gives a salt, the structure may show the parent alone.

Columns and labels:
Conditions in all cases: exposure time: 72 h
E13 [1] = patient-derived glioblastoma stem cells of classical subtype; assay: phenotypic distance (Euclidean, principal components) from DMSO controls (arbitrary units); higher = stronger morphological change
E34 [2] = patient-derived glioblastoma stem cells of proneural subtype; assay: as above
E31 [3] = patient-derived glioblastoma stem cells of proneural subtype; assay: as above
FT3469 [4] = normal neural stem cell line; assay: as above
E28 [5] = patient-derived glioblastoma stem cells of classical subtype; assay: as above
E57 [6] = patient-derived glioblastoma stem cells of mesenchymal subtype; assay: as above
E21 [7] = patient-derived glioblastoma stem cells of mesenchymal subtype; assay: as above
E13 [8] = assay: surviving fraction (nuclei count normalised to DMSO); higher = more cells surviving (less toxic)
E34 [9] = assay: as above
E31 [10] = assay: as above
FT3469 [11] = assay: as above
E28 [12] = assay: as above
E57 [13] = assay: as above
E21 [14] = assay: as above
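For phenotypic distance (Euclidean, principal components) from DMSO controls in this document: cell Painting imaging in 384-well plates, CellProfiler features reduced to at least 20 principal components, Euclidean distance versus same-plate DMSO vehicle wells (0.1% v/v), median over six images per well.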
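For surviving fraction (nuclei count normalised to DMSO) in this document: nuclei counted by high-content imaging of Hoechst-stained cells in laminin-coated 384-well plates, relative to 0.1% DMSO vehicle wells, with staurosporine as cell-death control.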

Nc1ccn([C@@H]2O[C@H](CO)[C@@H](O)C2(F)F)c(=O)n1 [Gemcitabine HCl]
Conditions	phenotypic distance	surviving fraction
E13 [1], 4.1 nM	5.82	–
E13 [1], 12.3 nM	5.84	–
E13 [1], 37 nM	5.64	–
E13 [1], 111.1 nM	4.94	–
E13 [1], 333.3 nM	6.22	–
E13 [1], 1000 nM	5.7	–
E13 [1], 3000 nM	5.74	–
E13 [8], 4.1 nM	–	0.327
E13 [8], 12.3 nM	–	0.326
E13 [8], 37 nM	–	0.331
E13 [8], 111.1 nM	–	0.351
E13 [8], 333.3 nM	–	0.32
E13 [8], 1000 nM	–	0.333
E13 [8], 3000 nM	–	0.352
E21 [7], 4.1 nM	4.04	–
E21 [7], 12.3 nM	4.48	–
E21 [7], 37 nM	4.76	–
E21 [7], 111.1 nM	5.02	–
E21 [7], 333.3 nM	4.71	–
E21 [7], 1000 nM	4.97	–
E21 [7], 3000 nM	4.67	–
E21 [14], 4.1 nM	–	0.161
E21 [14], 12.3 nM	–	0.173
E21 [14], 37 nM	–	0.126
E21 [14], 111.1 nM	–	0.143
E21 [14], 333.3 nM	–	0.147
E21 [14], 1000 nM	–	0.129
E21 [14], 3000 nM	–	0.0999
E28 [5], 4.1 nM	3.94	–
E28 [5], 12.3 nM	3.54	–
E28 [5], 37 nM	3.74	–
E28 [5], 111.1 nM	3.43	–
E28 [5], 333.3 nM	3.31	–
E28 [5], 1000 nM	3.19	–
E28 [5], 3000 nM	4.17	–
E28 [12], 4.1 nM	–	0.359
E28 [12], 12.3 nM	–	0.438
E28 [12], 37 nM	–	0.376
E28 [12], 111.1 nM	–	0.456
E28 [12], 333.3 nM	–	0.401
E28 [12], 1000 nM	–	0.361
E28 [12], 3000 nM	–	0.264
E31 [3], 4.1 nM	3.35	–
E31 [3], 12.3 nM	2.57	–
E31 [3], 37 nM	3.01	–
E31 [3], 111.1 nM	2.66	–
E31 [3], 333.3 nM	2.37	–
E31 [3], 1000 nM	3	–
E31 [3], 3000 nM	3.64	–
E31 [10], 4.1 nM	–	0.147
E31 [10], 12.3 nM	–	0.249
E31 [10], 37 nM	–	0.161
E31 [10], 111.1 nM	–	0.229
E31 [10], 333.3 nM	–	0.201
E31 [10], 1000 nM	–	0.199
E31 [10], 3000 nM	–	0.161
E34 [2], 4.1 nM	3.49	–
E34 [2], 12.3 nM	2.98	–
E34 [2], 37 nM	3.41	–
E34 [2], 111.1 nM	4.74	–
E34 [2], 333.3 nM	3.17	–
E34 [2], 1000 nM	2.85	–
E34 [2], 3000 nM	2.83	–
E34 [9], 4.1 nM	–	0.494
E34 [9], 12.3 nM	–	0.545
E34 [9], 37 nM	–	0.509
E34 [9], 111.1 nM	–	0.52
E34 [9], 333.3 nM	–	0.549
E34 [9], 1000 nM	–	0.496
E34 [9], 3000 nM	–	0.415
E57 [6], 4.1 nM	6.66	–
E57 [6], 12.3 nM	8.21	–
E57 [6], 37 nM	6.89	–
E57 [6], 111.1 nM	7.27	–
E57 [6], 333.3 nM	7.04	–
E57 [6], 1000 nM	7.07	–
E57 [6], 3000 nM	6.77	–
E57 [13], 4.1 nM	–	0.168
E57 [13], 12.3 nM	–	0.168
E57 [13], 37 nM	–	0.156
E57 [13], 111.1 nM	–	0.165
E57 [13], 333.3 nM	–	0.139
E57 [13], 1000 nM	–	0.159
E57 [13], 3000 nM	–	0.149
FT3469 [4], 4.1 nM	1.82	–
FT3469 [4], 12.3 nM	1.99	–
FT3469 [4], 37 nM	2.01	–
FT3469 [4], 111.1 nM	2.15	–
FT3469 [4], 333.3 nM	1.98	–
FT3469 [4], 1000 nM	1.8	–
FT3469 [4], 3000 nM	1.5	–
FT3469 [11], 4.1 nM	–	0.53
FT3469 [11], 12.3 nM	–	0.842
FT3469 [11], 37 nM	–	0.616
FT3469 [11], 111.1 nM	–	0.663
FT3469 [11], 333.3 nM	–	0.566
FT3469 [11], 1000 nM	–	0.568
FT3469 [11], 3000 nM	–	0.645
